What is called pIC50 is the negative decadic logarithm of the IC50, by convention in mol/L. Low values mean a large IC50, high ones a small IC50.

pIC50: −log10 of the molar value.

The target in the test is JAK2 (Homo sapiens (Human), UniProt O60674). In words: JAK2 Z-Lyte biochemical assay. The following applies: commercial JAK2 Z-Lyte assay from Invitrogen. The protocol: The JAK2 Z-Lyte biochemical assay was performed according to manufacturer's instructions (Life Technologies).
Chain of JAK2 (O60674 whole entry): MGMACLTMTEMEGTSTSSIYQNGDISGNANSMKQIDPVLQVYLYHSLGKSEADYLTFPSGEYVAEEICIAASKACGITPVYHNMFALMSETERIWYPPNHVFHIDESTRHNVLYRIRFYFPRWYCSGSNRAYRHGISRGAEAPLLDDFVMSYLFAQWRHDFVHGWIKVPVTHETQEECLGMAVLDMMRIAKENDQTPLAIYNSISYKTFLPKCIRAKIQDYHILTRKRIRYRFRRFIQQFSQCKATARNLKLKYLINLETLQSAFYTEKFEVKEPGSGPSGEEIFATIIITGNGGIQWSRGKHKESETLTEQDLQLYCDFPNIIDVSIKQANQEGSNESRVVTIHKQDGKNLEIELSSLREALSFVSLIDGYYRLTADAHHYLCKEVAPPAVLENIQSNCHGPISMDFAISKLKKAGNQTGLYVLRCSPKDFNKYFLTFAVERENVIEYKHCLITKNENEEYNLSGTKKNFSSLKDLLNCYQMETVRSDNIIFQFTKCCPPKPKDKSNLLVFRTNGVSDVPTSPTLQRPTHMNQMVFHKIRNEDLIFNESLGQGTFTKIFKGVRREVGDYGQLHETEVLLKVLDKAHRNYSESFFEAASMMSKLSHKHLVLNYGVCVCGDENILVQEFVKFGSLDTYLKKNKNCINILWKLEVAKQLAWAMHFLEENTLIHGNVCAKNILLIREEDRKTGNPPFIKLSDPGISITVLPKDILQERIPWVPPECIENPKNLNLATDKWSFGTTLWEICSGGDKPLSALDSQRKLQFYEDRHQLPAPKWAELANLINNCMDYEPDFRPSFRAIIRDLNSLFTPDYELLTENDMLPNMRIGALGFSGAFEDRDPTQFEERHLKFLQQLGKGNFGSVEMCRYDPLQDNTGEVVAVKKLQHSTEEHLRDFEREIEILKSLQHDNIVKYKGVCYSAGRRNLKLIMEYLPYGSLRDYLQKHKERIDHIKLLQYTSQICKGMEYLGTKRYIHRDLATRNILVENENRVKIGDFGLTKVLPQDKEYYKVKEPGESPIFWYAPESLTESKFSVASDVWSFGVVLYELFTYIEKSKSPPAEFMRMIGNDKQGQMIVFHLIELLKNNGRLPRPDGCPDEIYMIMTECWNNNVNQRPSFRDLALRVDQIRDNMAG
The compound `CCN1CCN(Cc2cc(NC(=O)c3ccc(C)c(-c4ccc5nc(NC(=O)C6CC6)nn5c4)c3)cc(C(F)(F)F)c2)CC1` [Compound I-1, 3-(2-(cyclopropanecarboxamido)-[1,2,4]triazolo[1,5-a]pyridin-6-yl)-N-(3-((4-ethylpiperazin-1-yl)methyl)-5-(trifluoromethyl)phenyl)-4-methylbenzamide] had a negative logarithm of the IC50 (pIC50) of 6.29.

In turn, `CCN1CCN(Cc2cc(NC(=O)c3ccc(C)c(-c4ccn5nc(NC(=O)C6CC6)nc5c4)c3)cc(C(F)(F)F)c2)CC1` [Compound I-3, 3-(2-(cyclopropanecarboxamido)-[1,2,4]triazolo[1,5-a]pyridin-7-yl)-N-(3-((4-ethylpiperazin-1-yl)methyl)-5-(trifluoromethyl)phenyl)-4-methylbenzamide] gave a pIC50 of 6.01.

Compound `CCN1CCN(Cc2cc(NC(=O)c3ccc(C)c(-c4cn5cc(NC(=O)C6CC6)nc5cn4)c3)cc(C(F)(F)F)c2)CC1` [Compound I-4, 3-(2-(cyclopropanecarboxamido)imidazo[1,2-a]pyrazin-6-yl)-N-(3-((4-ethylpiperazin-1-yl)methyl)-5-(trifluoromethyl)phenyl)-4-methylbenzamide] gave a negative logarithm of the IC50 (pIC50) of 6.02.

The compound `CCN1CCN(Cc2cc(NC(=O)c3ccc(C)c(-c4cnc5nc(NC(=O)C6CC6)cn5c4)c3)cc(C(F)(F)F)c2)CC1` [Compound I-5, 3-(2-(cyclopropanecarboxamido)imidazo[1,2-a]pyrimidin-6-yl)-N-(3-((4-ethylpiperazin-1-yl)methyl)-5-(trifluoromethyl)phenyl)-4-methylbenzamide] gave a pIC50 of 5.02.

In turn, `CCN1CCN(Cc2ccc(NC(=O)c3ccc(C)c(-c4ccc5nc(NC(=O)C6CC6)cn5c4)c3)cc2C(F)(F)F)CC1` [Compound I-7, 3-(2-(cyclopropanecarboxamido)imidazo[1,2-a]pyridin-6-yl)-N-(4-((4-ethylpiperazin-1-yl)methyl)-3-(trifluoromethyl)phenyl)-4-methylbenzamide] showed a negative-log IC50 (pIC50) of 6.17.

Compound `CCN1CCN(Cc2cc(C(=O)Nc3ccc(C)c(-c4ccc5nc(NC(=O)C6CC6)cn5c4)c3)cc(C(F)(F)F)c2)CC1` [Compound I-8, N-(3-(2-(cyclopropanecarboxamido)imidazo[1,2-a]pyridin-6-yl)-4-methylphenyl)-3-((4-ethylpiperazin-1-yl)methyl)-5-(trifluoromethyl)benzamide] had a pIC50 of 6.08.

In turn, `Cc1ccc(C(=O)Nc2cc(CN3CCNCC3)cc(C(F)(F)F)c2)cc1-c1ccc2nc(NC(=O)C3CC3)cn2n1` [Compound I-9, 3-(2-(cyclopropanecarboxamido)imidazo[1,2-b]pyridazin-6-yl)-4-methyl-N-(3-(piperazin-1-ylmethyl)-5-(trifluoromethyl)phenyl)benzamide] had a pIC50 of 6.52.

Turning to `CC(=O)N1CCN(Cc2cc(NC(=O)c3ccc(C)c(-c4ccc5nc(NC(=O)C6CC6)cn5n4)c3)cc(C(F)(F)F)c2)CC1` [Compound I-10, N-(3-((4-acetylpiperazin-1-yl)methyl)-5-(trifluoromethyl)phenyl)-3-(2-(cyclopropanecarboxamido)imidazo[1,2-b]pyridazin-6-yl)-4-methylbenzamide], the pIC50 is 5.87.

Turning to `CCS(=O)(=O)N1CCN(Cc2cc(NC(=O)c3ccc(C)c(-c4ccc5nc(NC(=O)C6CC6)cn5n4)c3)cc(C(F)(F)F)c2)CC1` [Compound I-11, 3-(2-(cyclopropanecarboxamido)imidazo[1,2-b]pyridazin-6-yl)-N-(3-((4-(ethylsulfonyl)piperazin-1-yl)methyl)-5-(trifluoromethyl)phenyl)-4-methylbenzamide], the negative-log IC50 (pIC50) is 5.58.

In turn, `COCCN1CCN(Cc2cc(NC(=O)c3ccc(C)c(-c4ccc5nc(NC(=O)C6CC6)cn5n4)c3)cc(C(F)(F)F)c2)CC1` [Compound I-12, 3-(2-(cyclopropanecarboxamido)imidazo[1,2-b]pyridazin-6-yl)-N-(3-((4-(2-methoxyethyl)piperazin-1-yl)methyl)-5-(trifluoromethyl)phenyl)-4-methylbenzamide] gave a negative logarithm of the IC50 (pIC50) of 5.74.

The compound `CCOC(=O)N1CCN(Cc2cc(NC(=O)c3ccc(C)c(-c4ccc5nc(NC(=O)C6CC6)cn5n4)c3)cc(C(F)(F)F)c2)CC1` [Compound I-13, ethyl 4-(3-(3-(2-(cyclopropanecarboxamido)imidazo[1,2-b]pyridazin-6-yl)-4-methylbenzamido)-5-(trifluoromethyl)benzyl)piperazine-1-carboxylate] showed a pIC50 of 5.50.

For `Cc1ccc(C(=O)Nc2cc(CN3CCN(CC4CC4)CC3)cc(C(F)(F)F)c2)cc1-c1ccc2nc(NC(=O)C3CC3)cn2n1` [Compound I-14, 3-(2-(cyclopropanecarboxamido)imidazo[1,2-b]pyridazin-6-yl)-N-(3-((4-(cyclopropylmethyl)piperazin-1-yl)methyl)-5-(trifluoromethyl)phenyl)-4-methylbenzamide], the pIC50 was 6.11.

`CCN1CCN(Cc2ccc(NC(=O)c3ccc(C)c(-c4ccc5nc(NC(=O)C6CC6)cn5n4)c3)cc2C(F)(F)F)CC1` [Compound I-15, 3-(2-(cyclopropanecarboxamido)imidazo[1,2-b]pyridazin-6-yl)-N-(4-((4-ethylpiperazin-1-yl)methyl)-3-(trifluoromethyl)phenyl)-4-methylbenzamide] showed a pIC50 of 5.96.

`CCN1CCN(Cc2cc(NC(=O)c3cnc(C)c(-c4ccc5nc(NC(=O)C6CC6)cn5n4)c3)cc(C(F)(F)F)c2)CC1` [Compound I-16, 5-(2-(cyclopropanecarboxamido)imidazo[1,2-b]pyridazin-6-yl)-N-(3-((4-ethylpiperazin-1-yl)methyl)-5-(trifluoromethyl)phenyl)-6-methylnicotinamide] gave a pIC50 of 6.31.

Compound `CCN1CCN(Cc2cc(NC(=O)c3cc(-c4ccc5nc(NC(=O)C6CC6)cn5n4)c(C)cc3F)cc(C(F)(F)F)c2)CC1` [Compound I-17, 5-(2-(cyclopropanecarboxamido)imidazo[1,2-b]pyridazin-6-yl)-N-(3-((4-ethylpiperazin-1-yl)methyl)-5-(trifluoromethyl)phenyl)-2-fluoro-4-methylbenzamide] had a pIC50 of 6.03.

Take `CCN1CCN(Cc2cc(NC(=O)c3cc(-c4ccc5nc(NC(=O)C6CC6)cn5n4)c(C)cn3)cc(C(F)(F)F)c2)CC1` [Compound I-18, 4-(2-(cyclopropanecarboxamido)imidazo[1,2-b]pyridazin-6-yl)-N-(3-((4-ethylpiperazin-1-yl)methyl)-5-(trifluoromethyl)phenyl)-5-methylpicolinamide]: the negative logarithm of the IC50 (pIC50) was 6.01.

`CCN1CCN(Cc2cc(NC(=O)c3cc(-c4ccc5nc(NC(=O)C6CC6)cn5n4)c(C)cc3C)cc(C(F)(F)F)c2)CC1` [Compound I-19, 5-(2-(cyclopropanecarboxamido)imidazo[1,2-b]pyridazin-6-yl)-N-(3-((4-ethylpiperazin-1-yl)methyl)-5-(trifluoromethyl)phenyl)-2,4-dimethylbenzamide] had a pIC50 of 5.06.

`CCc1ccc(C(=O)Nc2cc(CN3CCN(CC)CC3)cc(C(F)(F)F)c2)cc1-c1ccc2nc(NC(=O)C3CC3)cn2n1` [Compound I-20, 3-(2-(cyclopropanecarboxamido)imidazo[1,2-b]pyridazin-6-yl)-4-ethyl-N-(3-((4-ethylpiperazin-1-yl)methyl)-5-(trifluoromethyl)phenyl)benzamide] gave a pIC50 of 6.40.

As to `CCN1CCN(Cc2cc(NC(=O)c3cc(-c4ccc5nc(NC(=O)C6CC6)cn5n4)c(C)nc3O)cc(C(F)(F)F)c2)CC1` [Compound I-21, 5-(2-(cyclopropanecarboxamido)imidazo[1,2-b]pyridazin-6-yl)-N-(3-((4-ethylpiperazin-1-yl)methyl)-5-(trifluoromethyl)phenyl)-2-hydroxy-6-methylnicotinamide], the pIC50 is below 5.00.

Take `CCN1CCN(Cc2cc(NC(=O)c3ccc(C(F)(F)F)c(-c4ccc5nc(NC(=O)C6CC6)cn5n4)c3)cc(C(F)(F)F)c2)CC1` [Compound I-22, 3-(2-(cyclopropanecarboxamido)imidazo[1,2-b]pyridazin-6-yl)-N-(3-((4-ethylpiperazin-1-yl)methyl)-5-(trifluoromethyl)phenyl)-4-(trifluoromethyl)benzamide]: the negative-log IC50 (pIC50) is 5.72.

For the compound `CCN1CCN(Cc2cc(NC(=O)c3ccc(C#N)c(-c4ccc5nc(NC(=O)C6CC6)cn5n4)c3)cc(C(F)(F)F)c2)CC1` [Compound I-23, 4-cyano-3-(2-(cyclopropanecarboxamido)imidazo[1,2-b]pyridazin-6-yl)-N-(3-((4-ethylpiperazin-1-yl)methyl)-5-(trifluoromethyl)phenyl)benzamide], the pIC50 is 5.29.

With `CCN1CCN(Cc2cc(NC(=O)c3ccc(C)c(-c4ccc5nc(N)cn5n4)c3)cc(C(F)(F)F)c2)CC1` [Compound I-24, 3-(2-aminoimidazo [1,2-b]pyridazin-6-yl)-N-(3-((4-ethylpiperazin-1-yl)methyl)-5-(trifluoromethyl)phenyl)-4-methylbenzamide], the negative logarithm of the IC50 (pIC50) is below 5.48.

`CCN1CCN(Cc2cc(NC(=O)c3ccc(C)c(-c4ccc5nc(NC(=O)C6CC6)n(C)c5c4)c3)cc(C(F)(F)F)c2)CC1` [Compound I-25, 3-(2-(cyclopropanecarboxamido)-1-methyl-1H-benzo[d]imidazol-6-yl)-N-(3-((4-ethylpiperazin-1-yl)methyl)-5-(trifluoromethyl)phenyl)-4-methylbenzamide]: the pIC50 was 5.15.

Consider `CCN1CCN(Cc2cc(NC(=O)c3ccc(C)c(-c4ccc5c(c4)nc(NC(=O)C4CC4)n5C)c3)cc(C(F)(F)F)c2)CC1` [Compound I-26, 3-(2-(cyclopropanecarboxamido)-1-methyl-1H-benzo[d]imidazol-5-yl)-N-(3-((4-ethylpiperazin-1-yl)methyl)-5-(trifluoromethyl)phenyl)-4-methylbenzamide], for which the pIC50 is below 5.00.

`CCN1CCN(Cc2cc(NC(=O)c3ccc(C)c(-c4ccc5[nH]c(NC(=O)C6CC6)nc5n4)c3)cc(C(F)(F)F)c2)CC1` [Compound I-27, 3-(2-(cyclopropanecarboxamido)-1H-imidazo[4,5-b]pyridin-5-yl)-N-(3-((4-ethylpiperazin-1-yl)methyl)-5-(trifluoromethyl)phenyl)-4-methylbenzamide]: the negative logarithm of the IC50 (pIC50) was 5.82.
